Assay results reported in PubChem BioAssay (NCI).
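1) Cells in 96-well plates. 2) Compound, 48 h, 5 concentrations. 3) Linear interpolation between surrounding doses. 4) Unreached endpoint = highest concentration. GI50 is the concentration that inhibits growth by half. The concentration for full growth arrest is given as TGI.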

Key:
Assay in all cases: NCI tumour cell line growth inhibition, 48 h
EKVX NSCLC = system: EKVX NSCLC
UACC-62 melanoma = system: UACC-62 melanoma
T-47D breast = system: T-47D breast
786-0 renal = system: 786-0 renal
NCI/ADR-RES ovarian = system: NCI/ADR-RES ovarian
SNB-75 CNS = system: SNB-75 CNS
SR leukemia = system: SR leukemia
NCI-H226 lung = system: NCI-H226 lung
RXF 393 renal = system: RXF 393 renal
MDA-MB-231 breast = system: MDA-MB-231 breast
SK-MEL-2 melanoma = system: SK-MEL-2 melanoma

Row | Structure (SMILES) | TGI (EKVX NSCLC) [µM] | TGI (UACC-62 melanoma) [µM] | TGI (T-47D breast) [µM] | TGI (786-0 renal) [µM] | TGI (NCI/ADR-RES ovarian) [µM] | TGI (SNB-75 CNS) [µM] | TGI (SR leukemia) [µM] | TGI (NCI-H226 lung) [µM] | TGI (RXF 393 renal) [µM] | TGI (MDA-MB-231 breast) [µM] | TGI (SK-MEL-2 melanoma) [µM] | GI50 (EKVX NSCLC) [µM] | GI50 (T-47D breast) [µM] | GI50 (SK-MEL-2 melanoma) [µM] | GI50 (NCI/ADR-RES ovarian) [µM] | GI50 (SNB-75 CNS) [µM] | GI50 (RXF 393 renal) [µM]
1 | c1ccc(C(Oc2noc3ccccc23)c2ccccc2)cc1 | > 100 | > 100 | 23.1 | > 100 | > 100 | 37 | 51.6 | > 100 | 35.9 | > 100 | – | – | – | – | – | – | –
2 | CN(C(=O)Cc1ccccc1)n1cn[n+](CC(=O)OC(C)(C)C)c1 | > 10 | > 10 | > 10 | > 10 | > 10 | – | > 10 | > 10 | – | > 10 | – | – | – | – | – | – | –
3 | Cc1c2cc[n+](Cc3ccc(I)cc3)cc2c(C)c2c1[nH]c1ccccc12 | 7.85 | 16.6 | – | – | > 25 | 1.58 | – | 5.27 | > 25 | – | 1.64 | – | – | – | – | – | –
4 | COCN1C(=O)[C@@H]2CCCN2C(=O)c2ccc(N)cc21 | > 100 | > 100 | – | > 100 | > 100 | > 100 | > 100 | > 100 | > 100 | > 100 | > 100 | – | – | – | – | – | –
5 | C=C1OC2OC(C)C(NC(=O)OCC(Cl)(Cl)Cl)C(OC(C)=O)C2O1 (stereo not drawn) | > 100 | > 100 | > 100 | > 100 | > 100 | – | > 100 | > 100 | > 100 | > 100 | – | – | – | – | – | – | –
6 | Cc1ccc(C)c2c1C1CCCCC3(OCCCO3)C21O (stereo not drawn) | – | > 100 | – | > 100 | – | > 100 | – | > 100 | > 100 | – | > 100 | – | – | – | – | – | –
7 | CCN(CC)c1c(C(C)(C)C)c(=O)n2ccsc2c1OC(C)=O | 29.3 | 34.5 | – | 34.1 | 28.4 | 31 | – | 29.2 | 30.7 | 32.5 | 31 | – | – | – | – | – | –
8 | Nc1nc(SCc2ccccc2Cl)c2ncn(C3OC(CO)C(O)C3O)c2n1 (stereo not drawn) | – | > 100 | – | > 100 | – | 98.2 | > 100 | – | > 100 | – | > 100 | – | – | – | – | – | –
9 | Cc1ccc(S(=O)(=O)OC[C@@]2(C)CC[C@]3(C)CC[C@]4(C)C(=C3C2)C=C[C@@H]2[C@@]3(C)CCCNC(C)(C)[C@@H]3CC[C@]24C)cc1 | 3.29 | – | 3.26 | – | 4.59 | 3.1 | – | – | 2.86 | – | 3.52 | 1.7 | 1.55 | 1.88 | 2.05 | 1.61 | 1.35
10 | CCOC(=O)c1ccc(N(CCOS(C)(=O)=O)CCOS(C)(=O)=O)cc1 | > 100 | 77.6 | > 100 | – | > 100 | – | – | – | 38.5 | > 100 | > 100 | – | – | – | – | – | –
11 | CC1CC(=O)N(N(C)C)C2(C#N)C(=O)N=C(N)C12C#N (stereo not drawn) | > 100 | > 100 | > 100 | > 100 | > 100 | > 100 | > 100 | – | > 100 | > 100 | > 100 | – | – | – | – | – | –
12 | C[N+](C)(CCNc1ccc(NCC[N+](C)(C)Cc2ccc([N+](=O)[O-])cc2)c2c1C(=O)c1c(O)ccc(O)c1C2=O)Cc1ccc([N+](=O)[O-])cc1 | > 50 | > 50 | > 50 | > 50 | > 50 | > 50 | – | – | > 50 | > 50 | > 50 | – | – | – | – | – | –
